Test results as given in patent publication US9907800B2, “Kinase inhibitors and method of treating cancer” (University Health Network, priority 2010, dated 2018).

Assays:
Type in all cases: biochemical
[1] = target: human PLK4 (Homo sapiens (Human), UniProt O00444); assay: PLK4 inhibition assay (indirect ELISA); details: read-out: PLK4 IC50 Ranges
Experimental: PLK4 activity was measured using an indirect ELISA detection system. […] The colourimetric reaction was allowed to continue for 5 minutes, followed by addition of stop solution (0.5 N sulphuric acid), and quantified by detection at 450 nm with either a monochromatic or filter based plate reader (Molecular Devices M5 or Beckman DTX880, respectively).
Compounds were pre-incubated in the presence of enzyme for 15 minutes prior to addition of ATP and the activity remaining quantified using the above described activity assay. […] The IC50 value was determined using a non-linear 4 point logistic curve fit (XLfit4, IDBS) with the formula; (A+(B/(1+((x/C)^D)))), where A=background value, B=range, C=inflection point, D=curve fit parameter.

[2] = target: Aurora B (Homo sapiens (Human), UniProt Q96GD4); assay: Aurora B inhibition assay (Z-Lyte); details: read-out: Aurora B IC50 Ranges
Experimental: Aurora B inhibition was determined using the Z-Lyte assay kit from Invitrogen. […] The % inhibition values were determined according to the manufacturer's directions and IC50 values were obtained using a non-linear 4 point logistic curve fit (XLfit4, IDBS)

[3] = target: FLT3 (Homo sapiens (Human), UniProt P36888); assay: FLT3 inhibition assay (Z-Lyte); details: read-out: Flt3 IC50 Ranges
Chain of FLT3 (P36888 27-993): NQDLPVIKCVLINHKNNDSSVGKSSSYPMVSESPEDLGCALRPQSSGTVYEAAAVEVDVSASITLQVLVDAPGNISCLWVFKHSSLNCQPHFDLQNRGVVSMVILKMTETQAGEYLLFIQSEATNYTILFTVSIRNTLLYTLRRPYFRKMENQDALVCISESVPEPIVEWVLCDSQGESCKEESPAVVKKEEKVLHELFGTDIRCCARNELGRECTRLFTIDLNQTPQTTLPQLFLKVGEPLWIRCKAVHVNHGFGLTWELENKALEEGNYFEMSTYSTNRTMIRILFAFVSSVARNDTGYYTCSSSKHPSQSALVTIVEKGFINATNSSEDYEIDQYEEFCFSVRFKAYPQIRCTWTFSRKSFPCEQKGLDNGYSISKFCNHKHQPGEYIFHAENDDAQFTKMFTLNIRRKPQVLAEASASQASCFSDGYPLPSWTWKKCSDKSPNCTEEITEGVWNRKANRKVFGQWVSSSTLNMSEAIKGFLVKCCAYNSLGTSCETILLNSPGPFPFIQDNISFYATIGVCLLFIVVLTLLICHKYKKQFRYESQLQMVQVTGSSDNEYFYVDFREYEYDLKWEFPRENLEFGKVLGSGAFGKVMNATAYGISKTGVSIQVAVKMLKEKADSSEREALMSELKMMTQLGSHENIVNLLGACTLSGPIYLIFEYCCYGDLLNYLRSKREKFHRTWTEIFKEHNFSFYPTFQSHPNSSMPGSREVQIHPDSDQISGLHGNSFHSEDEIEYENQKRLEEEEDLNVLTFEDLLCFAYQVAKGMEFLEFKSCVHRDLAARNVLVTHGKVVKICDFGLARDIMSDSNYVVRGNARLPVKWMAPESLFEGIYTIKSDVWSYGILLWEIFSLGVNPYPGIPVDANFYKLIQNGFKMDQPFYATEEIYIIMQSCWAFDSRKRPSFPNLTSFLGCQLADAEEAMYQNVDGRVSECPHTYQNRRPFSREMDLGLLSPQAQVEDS
Experimental: The enzymatic activity of FLT3 was determined using the Z-Lyte assay kit from Invitrogen (Invitrogen cat #PV3191). […] The % inhibition values were determined according to the manufacturer's directions and IC50 values were obtained using a non-linear 4 point logistic curve fit (XLfit4, IDBS).

Chain of human PLK4 (O00444 1-391): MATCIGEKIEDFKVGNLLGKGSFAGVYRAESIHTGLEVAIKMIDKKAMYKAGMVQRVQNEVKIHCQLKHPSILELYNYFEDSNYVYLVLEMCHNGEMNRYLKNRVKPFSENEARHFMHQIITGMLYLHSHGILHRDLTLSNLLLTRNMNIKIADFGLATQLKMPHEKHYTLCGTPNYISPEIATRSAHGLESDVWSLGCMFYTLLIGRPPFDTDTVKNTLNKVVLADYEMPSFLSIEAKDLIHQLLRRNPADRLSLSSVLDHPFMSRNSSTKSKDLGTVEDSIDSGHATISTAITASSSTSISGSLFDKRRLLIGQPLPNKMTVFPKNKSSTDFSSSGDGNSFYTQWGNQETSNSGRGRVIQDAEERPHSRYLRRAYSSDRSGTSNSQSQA
Chain of Aurora B (Q96GD4 whole entry): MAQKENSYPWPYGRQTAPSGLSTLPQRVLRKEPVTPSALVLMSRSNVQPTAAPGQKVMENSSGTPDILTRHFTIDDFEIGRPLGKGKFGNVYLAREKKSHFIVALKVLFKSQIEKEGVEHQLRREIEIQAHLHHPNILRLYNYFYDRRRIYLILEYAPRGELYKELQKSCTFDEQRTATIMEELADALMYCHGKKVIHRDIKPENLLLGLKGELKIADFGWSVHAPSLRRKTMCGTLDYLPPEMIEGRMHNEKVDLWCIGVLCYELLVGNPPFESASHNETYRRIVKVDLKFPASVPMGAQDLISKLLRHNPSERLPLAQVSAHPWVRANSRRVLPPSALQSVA

| Compound | IC50 [1] [nM] | IC50 [2] [nM] | IC50 [3] [nM] |
| --- | --- | --- | --- |
| COc1ccc2c(c1)[C@]1(C[C@H]1c1ccc3c(-c4cccc(CN5CCCCC5)c4)n[nH]c3c1)C(=O)N2 (relative stereo) [Example A44, (1R*,2S*)-5′-methoxy-2-(3-(3-(piperidin-1-ylmethyl)phenyl)-1H-indazol-6-yl)spiro[cyclopropane-1,3′-indolin]-2′-one 2,2,2-trifluoroacetate] | < 100 | 100 to 1000 | > 1000 |
| COc1ccc2c(c1)[C@]1(C[C@H]1c1ccc3c(-c4ccc(CO)cc4)n[nH]c3c1)C(=O)N2 (relative stereo) [Example A45, (1R*,2S*)-2-(3-(4-(hydroxymethyl)phenyl)-1H-indazol-6-yl)-5′-methoxyspiro[cyclopropane-1,3′-indolin]-2′-one 2,2,2-trifluoroacetate] | < 100 | 100 to 1000 | > 1000 |
| COc1ccc2c(c1)[C@]1(C[C@H]1c1ccc3c(-c4cccc(N5CCNCC5)c4)n[nH]c3c1)C(=O)N2 (relative stereo) [Example A47, (1R*,2S*)-5′-methoxy-2-(3-(3-(piperazin-1-yl)phenyl)-1H-indazol-6-yl)spiro[cyclopropane-1,3′-indolin]-2′-one 2,2,2-trifluoroacetate] | < 100 | 100 to 1000 | > 1000 |
| CCc1ccc2c(c1)[C@]1(C[C@H]1c1ccc3c(-c4cccc(CN5CCOCC5)c4)n[nH]c3c1)C(=O)N2 (relative stereo) [Example A141, (1R*,2S*)-5′-ethyl-2-(3-(3-(morpholinomethyl)phenyl)-1H-indazol-6-yl)spiro[cyclopropane-1,3′-indolin]-2′-one 2,2,2-trifluoroacetate] | > 1000 | > 1000 | > 1000 |
| COc1ccc2c(c1)[C@]1(C[C@H]1c1ccc3c(-c4ccc(N5CCN(C(C)C)CC5)cc4)n[nH]c3c1)C(=O)N2 [Example A97, (1R,2S)-2-(3-(4-(4-isopropylpiperazin-1-yl)phenyl)-1H-indazol-6-yl)-5′-methoxyspiro[cyclopropane-1,3′-indolin]-2′-one 2,2,2-trifluoroacetate] | – | – | < 100 |
| COc1ccc2c(c1)[C@]1(C[C@H]1c1ccc3c(-c4ccc(N5CC[C@H](N(C)C)C5)cc4)n[nH]c3c1)C(=O)N2 [Example A128, (1R,2S)-2-(3-(4-((S)-3-(dimethylamino)pyrrolidin-1-yl)phenyl)-1H-indazol-6-yl)-5′-methoxyspiro[cyclopropane-1,3′-indolin]-2′-one 2,2,2-trifluoroacetate] | < 100 | – | 100 to 1000 |
| COc1ccc2c(c1)[C@]1(C[C@H]1c1ccc3c(/C=C/c4cccc(CN5CCOCC5)c4)n[nH]c3c1)C(=O)N2 [Example A132, (1R,2S)-5′-methoxy-2-(3-(3-(morpholinomethyl)styryl)-1H-indazol-6-yl)spiro[cyclopropane-1,3′-indolin]-2′-one 2,2,2-trifluoroacetate] | – | – | < 100 |
| COc1ccc2c(c1)[C@]1(C[C@H]1c1ccc3c(/C=C/c4cccc(CN(C)C)c4)n[nH]c3c1)C(=O)N2 [Example A134, (1R,2S)-2-(3-(3-((dimethylamino)methyl)styryl)-1H-indazol-6-yl)-5′-methoxyspiro[cyclopropane-1,3′-indolin]-2′-one 2,2,2-trifluoroacetate] | – | – | < 100 |
| COc1ccc2c(c1)[C@]1(C[C@H]1c1ccc3c(/C=C/c4ccc(CN5C[C@@H](C)O[C@@H](C)C5)cc4)n[nH]c3c1)C(=O)N2 [Example A185] | – | – | 100 to 1000 |
| COc1ccc2c(c1)[C@]1(C[C@H]1c1ccc3c(/C=C/c4ccc(CN5CCOCC5)c(F)c4)n[nH]c3c1)C(=O)N2 [Example A199, (1R,2S)-(E)-2-(3-(3-fluoro-4-(morpholinomethyl)styryl)-1H-indazol-6-yl)-5′-methoxyspiro[cyclopropane-1,3′-indolin]-2′-one 2,2,2-trifluoroacetate] | < 100 | < 100 | – |
| O=C1Nc2ccccc2[C@]12C[C@H]2c1ccc2c(/C=C/c3ccc(CN4CCOCC4)c(F)c3)n[nH]c2c1 [Example A200, (1R,2S)-(E)-2-(3-(3-fluoro-4-(morpholinomethyl)styryl)-1H-indazol-6-yl)spiro[cyclopropane-1,3′-indolin]-2′-one 2,2,2-trifluoroacetate] | < 100 | < 100 | – |
| C[C@@H]1CCC[C@H](C)N1Cc1ccc(/C=C/c2n[nH]c3cc([C@@H]4C[C@@]45C(=O)Nc4ccccc45)ccc23)cc1 [Example A201, (1R,2S)-(E)-2-(3-(4-((cis-2,6-dimethylpiperidin-1-yl)methyl)styryl)-1H-indazol-6-yl)spiro[cyclopropane-1,3′-indolin]-2′-one 2,2,2-trifluoroacetate] | < 100 | < 100 | – |
| O=C1Nc2ccccc2[C@]12C[C@H]2c1ccc2c(/C=C/c3csc(CN4CCOCC4)c3)n[nH]c2c1 [Example A202, (1R,2S)-2-(3-((E)-2-(5-(morpholinomethyl)thiophen-3-yl)vinyl)-1H-indazol-6-yl)spiro[cyclopropane-1,3′-indolin]-2′-one 2,2,2-trifluoroacetate] | < 100 | < 100 | – |
| COc1ccc2c(c1)[C@]1(C[C@H]1c1ccc3c(/C=C/c4ccc(CN5[C@H](C)CCC[C@@H]5C)cc4)n[nH]c3c1)C(=O)N2 [Example A203, (1R,2S)-(E)-2-(3-(4-((cis-2,6-dimethylpiperidin-1-yl)methyl)styryl)-1H-indazol-6-yl)-5′-methoxyspiro[cyclopropane-1,3′-indolin]-2′-one 2,2,2-trifluoroacetate] | < 100 | < 100 | – |
| O=C1Nc2ccccc2[C@]12C[C@H]2c1ccc2c(/C=C/c3ccc(OCCN4CCOCC4)cc3)n[nH]c2c1 [Example A204, (1R,2S)-(E)-2-(3-(4-(2-morpholinoethoxy)styryl)-1H-indazol-6-yl)spiro[cyclopropane-1,3′-indolin]-2′-one 2,2,2-trifluoroacetate] | < 100 | < 100 | – |
| O=C1Nc2ccccc2[C@]12C[C@H]2c1ccc2c(/C=C/c3ccc(CCN4CCOCC4)cc3)n[nH]c2c1 [Example A205, (1R,2S)-(E)-2-(3-(4-(2-morpholinoethyl)styryl)-1H-indazol-6-yl)spiro[cyclopropane-1,3′-indolin]-2′-one 2,2,2-trifluoroacetate] | < 100 | < 100 | – |
| CCN(CC)Cc1ccc(/C=C/c2n[nH]c3cc([C@@H]4C[C@@]45C(=O)Nc4ccc(OC)cc45)ccc23)cc1 [Example A206, (1R,2S)-(E)-2-(3-(4-((diethylamino)methyl)styryl)-1H-indazol-6-yl)-5′-methoxy spiro[cyclopropane-1,3′-indolin]-2′-one 2,2,2-trifluoroacetate] | < 100 | < 100 | – |
| COc1ccc2c(c1)[C@]1(C[C@H]1c1ccc3c(/C=C/c4cc(F)c(CN(C)C)c(F)c4)n[nH]c3c1)C(=O)N2 [Example A216, (1R,2S)-(E)-2-(3-(4-((dimethylamino)methyl)-3,5-difluorostyryl)-1H-indazol-6-yl)-5′-methoxyspiro[cyclopropane-1,3′-indolin]-2′-one 2,2,2-trifluoroacetate] | < 100 | < 100 | – |
| CCN(CC)Cc1c(F)cc(/C=C/c2n[nH]c3cc([C@@H]4C[C@@]45C(=O)Nc4ccccc45)ccc23)cc1F [Example A221, (1R,2S)-(E)-2-(3-(4-((diethylamino)methyl)-3,5-difluorostyryl)-1H-indazol-6-yl)spiro[cyclopropane-1,3′-indolin]-2′-one 2,2,2-trifluoroacetate] | < 100 | < 100 | – |
